79 compounds from the METLIN SMRT retention time set (Domingo-Almenara et al. 2019) can be followed below.

The data set can be described thus: gradient 5% acetonitrile 3 min, to 50% in 2 min, to 85% in 15 min, held 3 min, 100 µL/min. The note with it: column: Zorbax Extend-C18 2.1 x 50 mm; eluents: water / acetonitrile, 0.1% formic acid. The method, boiled down: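 Pure standards were analyzed in mixtures of ~100 molecules using HPLC coupled to a quadrupole time-of-flight mass spectrometer, in both positive and negative ionization mode. Separation used a Zorbax Extend-C18 column (2.1 × 50 mm, 1.8 μm) at 100 μL/min, with water and acetonitrile each containing 0.1% formic acid. Dead and dwell volumes were 40 μL and 900 μL, and data were collected over 3 months. Retention time was read from computationally picked adduct peaks, each inspected manually.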
The compound `CCc1ccc(N2CC(c3noc(-c4ccccc4C)n3)CC2=O)cc1` (centres undefined) showed an RP-LC retention time of 1160 s.

The compound `Cc1cccc(Sc2nccnc2N2CCC(C(=O)NCc3ccccc3)CC2)c1` had an RP-LC retention time of 1060 s.

In the case of `COc1ccc(CN2CC3(CCN(S(=O)(=O)c4ccccc4Cl)CC3)C2=O)cc1`, the RP-LC retention time was 913 s.

Compound `Cc1ccc(Cl)cc1NC(=O)C1CCN(S(=O)(=O)c2ccc3c(c2)NC(=O)C(C)O3)CC1` (centres undefined) yielded an RP-LC retention time of 834 s.

In turn, `COc1ccc(Cc2nc3nccc(-c4ccc(F)cc4OC)n3n2)cc1` returned an RP-LC retention time of 871 s.

In turn, `Cn1c(=O)n(CC(=O)N2CCCCC2)c(=O)c2cnc(-c3ccccc3)nc21` registered an RP-LC retention time of 918 s.

For `CCOC(=O)c1noc2nc(C)nc(N3CCN(Cc4ccccc4)CC3)c12`, the RP-LC retention time was 616 s.

Compound `Nc1ccc2c(c1Cl)C(=O)c1ccc(N)c(Cl)c1C2=O` had an RP-LC retention time of 854 s.

In the case of `CC(C)c1ccc(N2C(=O)C3N=NN(Cc4nc(-c5ccccc5Cl)no4)C3C2=O)cc1` (centres undefined), the RP-LC retention time was 1100 s.

In turn, `O=C(COc1ccccc1)N1CCCC(c2n[nH]c(C3CC3)n2)C1` (centres undefined) gave an RP-LC retention time of 637 s.

Compound `Cc1cccc(NC(=O)C2CCCN(c3ccc(=O)n(-c4cccc(Cl)c4)n3)C2)c1C` (centres undefined) came in with an RP-LC retention time of 960 s.

With `O=C(Nc1cc(F)cc(F)c1)Nc1cccc(-c2nccnc2N2CCOCC2)c1`, the RP-LC retention time is 940 s.

In turn, `O=S(=O)(NCc1nc(-c2ccc(NS(=O)(=O)c3ccccc3)cc2)no1)c1ccccc1` came in with an RP-LC retention time of 877 s.

Compound `O=C(Cn1ccnc1-c1ccnc(N2CCSCC2)c1)NCc1ccc(F)cc1` displayed an RP-LC retention time of 653 s.

Compound `COc1ccc(NC(=O)c2cn(-c3cc(N(C)C)ncn3)cn2)cc1OC` returned an RP-LC retention time of 678 s.

`CCc1cccc(N(C)C(N)=Nc2cccc3ccccc23)c1`: the RP-LC retention time came to 846 s.

`Cc1cccc(OCC(=O)c2ccc3c(c2)N(C(C)C(=O)N2CCOCC2)C(=O)CO3)c1C` (centres undefined): the RP-LC retention time came out at 877 s.

On to `C[C@@H](NC(=O)c1ccc(F)c(F)c1)C(=O)NCc1cscn1`, for which the RP-LC retention time is 648 s.

On to `Cc1cc(C)cc(C(=O)NCc2nn(C)c3ccccc23)c1`, for which the RP-LC retention time stood at 854 s.

In turn, `CC1=C(C(=O)NC2CCN(Cc3ccccc3)CC2)C2(CCCCC2)OC1=O` registered an RP-LC retention time of 633 s.

As to `O=C(c1n[nH]c2ccccc12)N1CCn2c(nnc2-c2ccccc2)C1`, the RP-LC retention time is 664 s.

For `CCOC(=O)c1c(C)oc2nc(C)nc(NCc3ccc(OC)cc3OC)c12`, the RP-LC retention time came to 1140 s.

As for `Cc1ccccc1NC(=O)Cn1cnc2onc(C)c2c1=O`, the RP-LC retention time was 718 s.

For `CCc1ccccc1NC(=O)C1(C)Oc2cccnc2N(C)C1=O` (centres undefined), the RP-LC retention time is 814 s.

Regarding `CC1CCC(NC(=O)c2nnn(Cc3ccc(F)cc3)c2-n2cccc2)CC1` (centres undefined), the RP-LC retention time was 1160 s.

Regarding `O=C(NC1CCCCC1)C1CCCN(C(=O)c2cc(-c3cccnc3)n[nH]2)C1` (centres undefined), the RP-LC retention time was found to be 622 s.

Take `O=C(NCc1ccncc1)c1ccc(-c2ccsc2)nc1`: the RP-LC retention time is 589 s.

As to `CCCC(=O)N1CCCN(C2=NS(=O)(=O)C(c3ccc(Cl)cc3)=C2C)CC1`, the RP-LC retention time is 834 s.

Turning to `CC(C)c1nc(-c2ccc(OC3CCNC3)cc2)no1` (centres undefined), the RP-LC retention time came out at 631 s.

Turning to `CCOc1ccc(NC(=O)Cc2c(C)nn(-c3nc(-c4ccc(Cl)cc4)cs3)c2C)cc1`, the RP-LC retention time turned out to be 1260 s.

Regarding `O=C(C1CCC1)N1CCc2c([nH]c3ccccc23)C1c1ccc(Cl)cc1` (centres undefined), the RP-LC retention time stood at 1230 s.

In turn, `CCCCN1CCN(C(=O)c2nnc(-c3ccc(S(=O)(=O)N(C)C)cc3)o2)CC1` returned an RP-LC retention time of 620 s.

Compound `CCN(CC)CCCC(C)NC(=O)c1ccc2c(c1)C(=O)c1ccccc1C2=O` (centres undefined) came in with an RP-LC retention time of 671 s.

As for `Cc1ccc(-c2noc(Cn3ccnc3C)n2)cc1C`, the RP-LC retention time was determined as 670 s.

The compound `Cn1nc(C(=O)Nc2onc3c2CSC3)ccc1=O` registered an RP-LC retention time of 585 s.

In the case of `Cc1cc(NC(=O)Nc2cc(Cl)ccc2C)no1`, the RP-LC retention time stood at 972 s.

The compound `CCCn1c(-c2cccc(C(=O)NCc3ccncc3)c2)nc2cccnc21` yielded an RP-LC retention time of 592 s.

Consider `CCCOc1cn(-c2ccc(F)cc2)nc1C(=O)N1CCC(C(=O)OCC)CC1`, for which the RP-LC retention time was 930 s.

The compound `Cc1c(N2CCN(C(=O)C3CCCCC3)CC2)c(=O)n(C)c(=O)n1-c1ccccc1` had an RP-LC retention time of 881 s.

For `Cc1scc(CN2CCN(c3ccccn3)CC2)c1C`, the RP-LC retention time stood at 578 s.

`Cc1ccc(C2=NC3(CCN(C(=O)c4ccc5ccccc5n4)CC3)ON2)cc1` showed an RP-LC retention time of 809 s.

The compound `CCOc1ccc(-c2csc(C)n2)cc1S(=O)(=O)Nc1ccc(OC)cc1` displayed an RP-LC retention time of 940 s.

Regarding `CC1(C(=O)N2CC(F)(F)C[C@H]2c2nc(-c3ncccn3)no2)CC1`, the RP-LC retention time was 674 s.

`CCOc1ccc(-c2cc3c(=O)n(Cc4nc(-c5ccc(OCC)c(OC)c5)no4)ncn3n2)cc1`: the RP-LC retention time worked out at 1150 s.

Compound `Cc1ccc(NC(=O)NC2CCN(c3ccc(C)cc3)C2=O)cc1` (centres undefined) gave an RP-LC retention time of 853 s.

In the case of `Cc1cc2c(c(=O)n(-c3ccccc3)c(=O)n2CC(=O)Nc2cccc(C(F)(F)F)c2)n1C`, the RP-LC retention time is 904 s.

As to `Cc1ccccc1NC(=O)N(C)CCc1noc(COc2ccccc2)n1`, the RP-LC retention time was found to be 869 s.

For `COc1ccc(Cl)cc1NC(=O)Cn1ccc2ccc(-c3nnc(C)o3)cc21`, the RP-LC retention time is 898 s.

`COc1ccc(Nc2nc(C(=O)Nc3ccc4c(c3)OCCO4)cs2)c(OC)c1` yielded an RP-LC retention time of 865 s.

`Cc1ccc(CNC(=O)NCCC2CCN(S(=O)(=O)c3ccc(F)cc3)CC2)cc1` registered an RP-LC retention time of 896 s.

Take `COc1ccc(S(=O)(=O)N2CCC(c3ccncc3)CC2)cc1Cl`: the RP-LC retention time was found to be 667 s.

Take `CCN1CCn2cc(S(=O)(=O)NCc3cc(F)cc(F)c3)cc2C1=O`: the RP-LC retention time was 794 s.

`CCCNC(=O)C1CCCN(c2nc3ncn(CC(=O)NC4CCCC4)c(=O)c3s2)C1` (centres undefined) had an RP-LC retention time of 641 s.

Turning to `O=C1N(c2cccc(Cl)c2)c2ncccc2S(=O)(=O)N1Cc1ccccc1`, the RP-LC retention time came out at 1100 s.

Take `Cc1ccc(NS(=O)(=O)c2cc3n(c2)CCCN(C)C3=O)cc1C`: the RP-LC retention time turned out to be 720 s.

Compound `COc1ccccc1C(=O)N1CCCC1c1cc(C)on1` (centres undefined) gave an RP-LC retention time of 723 s.

`Cc1nnc(N2CCCC(C(=O)NCc3ccc(F)cc3)C2)c2nn(-c3ccccc3)c(C)c12` (centres undefined): the RP-LC retention time turned out to be 720 s.

In turn, `Cn1c(=O)c2c(nc3n(-c4ccc(F)cc4)c(-c4ccc(Cl)cc4)cn23)n(C)c1=O` yielded an RP-LC retention time of 1010 s.

Turning to `C=CCN1C(=O)COc2ccc(-c3csc(NC(=O)c4ccc(OC)c(OC)c4)n3)cc21`, the RP-LC retention time turned out to be 943 s.

`CSc1ncc(C(=O)NC2CC2)c(N)n1` gave an RP-LC retention time of 543 s.

Consider `CCn1c(=O)c(N2CCN(C(=O)NCCc3ccccc3)CC2)nc2ccccc21`, for which the RP-LC retention time turned out to be 902 s.

`Cc1ccc(CNC(=O)N2[C@H]3CC[C@@H]2c2cncnc2C3)cc1` registered an RP-LC retention time of 735 s.

Compound `CC(C)n1cnc(S(=O)(=O)N2CCCC(C(=O)N3CCN(c4ncccn4)CC3)C2)c1` (centres undefined) returned an RP-LC retention time of 682 s.

`Cc1ccccc1CNC(=O)C1(C)CCCN(C(=O)Nc2cccc(Cl)c2)C1` (centres undefined): the RP-LC retention time is 1030 s.

For the compound `CCOc1ccc(N2C(=O)C3N=NN(Cc4nc(-c5cccc(C(F)(F)F)c5)no4)C3C2=O)cc1` (centres undefined), the RP-LC retention time was 1080 s.

`Nc1ccccc1-c1nc2ccncc2[nH]1` had an RP-LC retention time of 708 s.

Compound `CCCN(CC(=O)N1CCc2sccc2C1COc1ccccc1OC)C(=O)C1CC1` (centres undefined) had an RP-LC retention time of 922 s.

`Cc1ccc(-c2nc(-c3ccc4c(c3)oc(=O)n4C(C)C)no2)cc1`: the RP-LC retention time came out at 1280 s.

The compound `Cc1ccc(NS(=O)(=O)c2cc3c(s2)CCN(C(=O)C2CCC2)C3)cc1Cl` displayed an RP-LC retention time of 1010 s.

For the compound `CN1CCCn2nc(C3CCN(C(=O)NCCc4ccccc4)CC3)cc2C1=O`, the RP-LC retention time is 657 s.

Regarding `CC(C)n1cnc(S(=O)(=O)N2CCCC(C(=O)NCc3ccccc3)C2)c1` (centres undefined), the RP-LC retention time was 702 s.

Regarding `COc1cccc(-n2c(=O)c3sccc3n(Cc3nc(-c4ccccc4OC)no3)c2=O)c1`, the RP-LC retention time is 861 s.

The compound `COc1ccc(-c2nc3n(n2)C2(CCCCC2)[C@@H]2CCCC[C@@H]2N3C(=O)C2CC2)cc1` showed an RP-LC retention time of 682 s.

As for `O=C(Cc1cccs1)NC1CCN(c2nnc3ccc(Cl)cn23)CC1`, the RP-LC retention time stood at 596 s.

In turn, `Cc1nn2c(CNS(=O)(=O)c3ccc(Cl)cc3C)c(-c3ccccc3)nc2s1` gave an RP-LC retention time of 973 s.

For `CCCn1c(-c2cccc(C(=O)NCc3ccco3)c2)nc2cccnc21`, the RP-LC retention time was 742 s.

The compound `COc1cc(-c2noc(Cn3ncn4nc(-c5cccs5)cc4c3=O)n2)cc(OC)c1OC` yielded an RP-LC retention time of 983 s.

In the case of `Cc1ccc(Cn2cc(-c3ccncc3)cc2C(=O)NC(C)c2ccccn2)cc1` (centres undefined), the RP-LC retention time amounted to 620 s.

For `Cc1cccc(CNC(=O)CN2C(=O)CCc3cc(Br)ccc32)c1`, the RP-LC retention time amounted to 889 s.
